Calls of active or inactive are those of the source.
Assays:
[1] = biological target: T1, Protein skinhead-1 (Caenorhabditis elegans, UniProt P34707); format: functional
T1 sequence (P34707 whole entry): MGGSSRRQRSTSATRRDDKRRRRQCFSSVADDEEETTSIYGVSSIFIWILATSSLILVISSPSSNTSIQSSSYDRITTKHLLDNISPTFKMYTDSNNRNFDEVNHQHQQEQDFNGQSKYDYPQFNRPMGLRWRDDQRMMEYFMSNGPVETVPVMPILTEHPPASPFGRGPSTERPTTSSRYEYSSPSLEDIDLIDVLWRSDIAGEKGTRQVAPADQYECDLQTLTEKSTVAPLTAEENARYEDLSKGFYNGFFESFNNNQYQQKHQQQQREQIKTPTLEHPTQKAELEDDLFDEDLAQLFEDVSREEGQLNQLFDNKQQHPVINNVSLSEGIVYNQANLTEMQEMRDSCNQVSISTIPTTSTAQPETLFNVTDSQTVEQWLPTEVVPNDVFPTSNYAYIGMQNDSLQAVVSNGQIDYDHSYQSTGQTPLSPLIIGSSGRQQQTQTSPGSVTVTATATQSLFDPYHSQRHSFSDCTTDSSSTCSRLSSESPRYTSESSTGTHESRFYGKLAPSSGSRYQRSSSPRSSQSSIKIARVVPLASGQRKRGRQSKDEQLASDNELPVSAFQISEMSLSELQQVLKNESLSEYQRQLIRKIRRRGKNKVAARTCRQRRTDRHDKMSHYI

[2] = biological target: Cytochrome P450 3A4 (Homo sapiens, UniProt P08684);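 further: CYP3A4 tested as one member of a cytochrome P450 panel screen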
[3] = biological target: T2, Microphthalmia-associated transcription factor (Homo sapiens, UniProt O75030); experiment: TRPM1 promoter luciferase signal decrease, dose response, MITF inhibitor project, cell-based, SK-MEL-5, cherry-picked, set 3 (AID 493073); format: functional
T2 sequence (O75030 whole entry): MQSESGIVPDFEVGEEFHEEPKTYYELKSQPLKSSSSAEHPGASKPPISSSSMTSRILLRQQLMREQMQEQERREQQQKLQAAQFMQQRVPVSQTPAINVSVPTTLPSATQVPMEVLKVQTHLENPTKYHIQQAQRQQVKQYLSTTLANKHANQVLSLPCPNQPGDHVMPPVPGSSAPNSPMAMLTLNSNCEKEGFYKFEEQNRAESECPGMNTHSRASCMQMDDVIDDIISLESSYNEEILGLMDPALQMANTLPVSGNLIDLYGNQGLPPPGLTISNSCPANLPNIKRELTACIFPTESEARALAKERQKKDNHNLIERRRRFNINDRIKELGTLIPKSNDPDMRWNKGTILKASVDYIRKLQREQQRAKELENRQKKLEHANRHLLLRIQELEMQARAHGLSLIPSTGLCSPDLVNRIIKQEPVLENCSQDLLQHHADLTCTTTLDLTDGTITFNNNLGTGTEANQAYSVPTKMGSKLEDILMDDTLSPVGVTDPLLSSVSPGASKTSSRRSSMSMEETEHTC

[4] = CRF-BP/CRF-R2 complex antagonists, dose response, cell-based, uHTS hits, 384-well (AID 651639); format: functional, Homo sapiens; settings: read-out: IC50_Mean
[5] = biological target: T3, Corticotropin-releasing factor receptor 2/Corticotropin-releasing factor-binding protein (Homo sapiens, UniProt P24387+Q13324); experiment: Dose Response confirmation of uHTS hits for small molecule antagonists of the CRF-binding protein and CRF-R2 receptor complex.; format: functional; settings: read-out: IC50_Mean
T3 sequence (Q13324 whole entry): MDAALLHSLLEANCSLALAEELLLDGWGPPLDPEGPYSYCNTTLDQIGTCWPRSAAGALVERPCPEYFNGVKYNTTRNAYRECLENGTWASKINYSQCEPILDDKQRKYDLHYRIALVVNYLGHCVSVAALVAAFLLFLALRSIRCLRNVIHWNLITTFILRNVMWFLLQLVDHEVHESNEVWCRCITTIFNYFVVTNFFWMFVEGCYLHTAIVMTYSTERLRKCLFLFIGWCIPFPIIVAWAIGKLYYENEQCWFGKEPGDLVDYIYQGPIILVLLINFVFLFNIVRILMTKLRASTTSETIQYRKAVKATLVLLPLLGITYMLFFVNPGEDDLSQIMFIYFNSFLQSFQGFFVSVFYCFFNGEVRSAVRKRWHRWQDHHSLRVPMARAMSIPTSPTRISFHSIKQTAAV
T3 sequence (P24387 whole entry): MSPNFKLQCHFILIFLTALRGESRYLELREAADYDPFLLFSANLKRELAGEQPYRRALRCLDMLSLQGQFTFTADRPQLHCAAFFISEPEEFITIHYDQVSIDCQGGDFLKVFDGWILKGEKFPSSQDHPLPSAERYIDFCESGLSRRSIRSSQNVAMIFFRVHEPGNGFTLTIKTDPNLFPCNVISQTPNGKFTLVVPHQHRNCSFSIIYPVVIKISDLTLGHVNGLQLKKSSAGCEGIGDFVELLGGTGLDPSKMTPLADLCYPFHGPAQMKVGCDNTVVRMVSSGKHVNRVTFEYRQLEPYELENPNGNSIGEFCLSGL

[6] = biological target: T3, Corticotropin-releasing factor receptor 2/Corticotropin-releasing factor-binding protein; experiment: activators of CRF receptor 2 with binding protein – uHTS hits, confirmation (AID 602473); format: functional; settings: read-out: EC50_Mean
[7] = biological target: T4, Alkaline phosphatase, tissue-nonspecific isozyme (Homo sapiens, UniProt P05186); experiment: human TNAP enzyme inhibitors, SAR follow-up, biochemical, luminescent, dose response (AID 1056)
T4 sequence (P05186 whole entry): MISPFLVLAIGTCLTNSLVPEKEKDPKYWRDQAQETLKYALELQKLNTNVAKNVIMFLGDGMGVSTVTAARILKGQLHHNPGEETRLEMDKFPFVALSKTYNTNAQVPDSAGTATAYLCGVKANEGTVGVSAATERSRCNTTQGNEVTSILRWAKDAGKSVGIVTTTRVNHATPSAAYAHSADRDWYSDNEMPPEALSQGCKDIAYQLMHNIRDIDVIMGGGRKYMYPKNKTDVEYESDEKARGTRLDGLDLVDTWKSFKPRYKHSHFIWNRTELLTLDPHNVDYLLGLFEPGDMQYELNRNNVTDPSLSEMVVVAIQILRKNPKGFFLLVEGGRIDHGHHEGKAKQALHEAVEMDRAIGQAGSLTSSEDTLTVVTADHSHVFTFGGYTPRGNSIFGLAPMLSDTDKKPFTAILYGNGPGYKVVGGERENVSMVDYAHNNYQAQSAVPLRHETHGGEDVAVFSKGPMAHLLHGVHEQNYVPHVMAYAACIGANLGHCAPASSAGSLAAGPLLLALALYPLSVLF

[8] = biological target: Glyceraldehyde-3-phosphate dehydrogenase (Homo sapiens, UniProt P04406)
[9] = test system: Vero; experiment: Vero cell cytotoxicity, cytotoxicity control for flavivirus capping enzyme inhibitors (AID 588742); format: functional; settings: Chlorocebus sabaeus
[10] = biological target: Genome polyprotein (dengue virus type 2, UniProt P29990); experiment: Dengue-2 NS5 methyltransferase inhibitors, primary screen, biochemical, confirmation dose response (AID 588689); format: functional
[11] = biological target: Heat shock protein HSP 90-alpha (Homo sapiens, UniProt P07900); format: functional, organism-based
[12] = test system: Streptococcus sp. 'group A'; experiment: growth inhibition of control SK(-) GAS strain, dose response, counter-screen for streptokinase expression inhibitor project, luminescence, kanamycin, BacTiterGlo, confirmation (AID 1900); format: functional, organism-based
[13] = biological target: T5, Streptokinase A (Streptococcus pyogenes serotype M1, UniProt P10520); experiment: S. pyogenes streptokinase expression inhibitors, potency, dose response, plasminogen activation absorbance, OD405 (AID 1914); format: functional, Streptococcus pyogenes M1 GAS;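 further: secreted streptokinase activity via plasminogen activation per viability signal from cell pellet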
T5 sequence (P10520 whole entry): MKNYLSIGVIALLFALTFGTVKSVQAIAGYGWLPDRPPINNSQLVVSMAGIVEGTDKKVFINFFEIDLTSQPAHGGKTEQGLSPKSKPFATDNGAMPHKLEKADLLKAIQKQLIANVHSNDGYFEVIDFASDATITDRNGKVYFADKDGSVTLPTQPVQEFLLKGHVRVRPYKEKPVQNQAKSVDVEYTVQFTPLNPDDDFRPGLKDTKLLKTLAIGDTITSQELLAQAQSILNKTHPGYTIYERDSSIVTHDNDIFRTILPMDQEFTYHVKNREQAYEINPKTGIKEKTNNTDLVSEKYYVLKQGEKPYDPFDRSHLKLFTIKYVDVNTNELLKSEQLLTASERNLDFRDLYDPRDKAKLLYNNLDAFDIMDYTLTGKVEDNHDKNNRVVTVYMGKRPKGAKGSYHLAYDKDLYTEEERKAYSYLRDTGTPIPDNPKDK

[14] = test system: INS1; experiment: beta cell apoptosis inhibitors, cytokine rescue, dose response, luminescence, retest (AID 449756); format: functional, cell-based; settings: Rattus norvegicus;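 further: cell death triggered by IL-1 beta plus TNF-alpha plus IFN-gamma mixture; protective hits raise ATP signal compared with cytokine alone wells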
[15] = test system: Streptococcus; experiment: Group A Streptococcus viability loss, dose response, counter-screen for streptokinase expression inhibitor project, luminescence, BacTiterGlo (AID 1915); format: functional, organism-based;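 further: potency for reduction of bacterial viability or growth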
[16] = biological target: Cytochrome P450 2C19 (Homo sapiens, UniProt P33261); experiment: Cytochrome panel assay with activity outcomes. Panel member name: p450-cyp2c19 Compounds with AC50 equal or less than 10 uM are considered active; format: functional; settings: read-out: AC50
[17] = biological target: T6, Long-chain-fatty-acid--AMP ligase FadD28 (Mycobacterium tuberculosis, UniProt P9WQ59); experiment: Fluorescence polarization aasay to screen for inhibitors that compete for the binding of FadD28 to a bisubstrate Measured in Biochemical System Using Plate Reader - 2147-01_Inhibitor_Dose_CherryPick_Activity.; format: functional, Mycobacterium tuberculosis H37Rv
T6 sequence (P9WQ59 whole entry): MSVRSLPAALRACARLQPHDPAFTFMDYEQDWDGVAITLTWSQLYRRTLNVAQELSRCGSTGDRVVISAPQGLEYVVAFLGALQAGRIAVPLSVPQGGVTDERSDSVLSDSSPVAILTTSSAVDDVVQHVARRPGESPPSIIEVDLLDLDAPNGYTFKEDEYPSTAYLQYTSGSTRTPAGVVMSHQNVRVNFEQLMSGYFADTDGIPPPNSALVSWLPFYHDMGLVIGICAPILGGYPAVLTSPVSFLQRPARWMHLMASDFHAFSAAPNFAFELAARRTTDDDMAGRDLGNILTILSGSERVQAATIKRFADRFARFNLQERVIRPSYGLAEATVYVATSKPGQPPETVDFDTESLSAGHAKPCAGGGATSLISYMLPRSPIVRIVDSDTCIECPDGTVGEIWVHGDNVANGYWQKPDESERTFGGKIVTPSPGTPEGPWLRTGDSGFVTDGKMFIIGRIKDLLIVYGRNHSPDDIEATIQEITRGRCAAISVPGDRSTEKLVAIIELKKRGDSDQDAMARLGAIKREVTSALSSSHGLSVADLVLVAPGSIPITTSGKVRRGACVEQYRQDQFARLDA

[18] = HEK293 cell cytotoxicity, dose response, cytotoxicity control, plate reader, cherry-picked samples (AID 743446); format: functional, cell-based
[19] = LGR2 antagonists, dose response, cell-based, HEK293, CRE-luciferase reporter, cherry pick, set 2 (AID 743343); format: functional;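 further: transfected cells were stimulated with diluted bursicon conditioned medium after compound addition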
[20] = A549 cell cytotoxicity, dose response, cytotoxicity control, plate reader, cherry-pick, antagonist series (AID 743412); format: functional, cell-based
[21] = MC4R antagonists, dose response, counter-screen for LGR2 antagonist project, cell-based, plate reader, cherry pick (AID 743444); format: functional;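 further: transfected HEK 293 cells stimulated with alpha-MSH peptide; potency of inhibitors of the alpha-MSH evoked signal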
[22] = HepG2 cell cytotoxicity, dose response, cytotoxicity control, plate reader, cherry-pick, antagonist series (AID 743416); format: functional, cell-based

Chain of Cytochrome P450 3A4 (P08684 whole entry): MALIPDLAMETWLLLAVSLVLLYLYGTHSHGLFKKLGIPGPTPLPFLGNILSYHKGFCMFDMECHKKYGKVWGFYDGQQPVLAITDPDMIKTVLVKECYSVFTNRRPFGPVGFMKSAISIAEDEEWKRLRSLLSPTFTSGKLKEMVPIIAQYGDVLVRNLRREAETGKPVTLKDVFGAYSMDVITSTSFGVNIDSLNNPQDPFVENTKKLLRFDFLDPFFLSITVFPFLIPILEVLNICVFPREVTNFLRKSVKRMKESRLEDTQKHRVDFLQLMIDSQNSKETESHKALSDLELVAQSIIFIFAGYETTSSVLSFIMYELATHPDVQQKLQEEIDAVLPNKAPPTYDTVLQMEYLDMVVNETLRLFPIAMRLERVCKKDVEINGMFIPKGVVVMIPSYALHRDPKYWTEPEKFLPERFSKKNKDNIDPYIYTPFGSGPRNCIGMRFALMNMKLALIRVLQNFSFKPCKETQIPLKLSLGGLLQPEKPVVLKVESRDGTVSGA
Chain of Glyceraldehyde-3-phosphate dehydrogenase (P04406 whole entry): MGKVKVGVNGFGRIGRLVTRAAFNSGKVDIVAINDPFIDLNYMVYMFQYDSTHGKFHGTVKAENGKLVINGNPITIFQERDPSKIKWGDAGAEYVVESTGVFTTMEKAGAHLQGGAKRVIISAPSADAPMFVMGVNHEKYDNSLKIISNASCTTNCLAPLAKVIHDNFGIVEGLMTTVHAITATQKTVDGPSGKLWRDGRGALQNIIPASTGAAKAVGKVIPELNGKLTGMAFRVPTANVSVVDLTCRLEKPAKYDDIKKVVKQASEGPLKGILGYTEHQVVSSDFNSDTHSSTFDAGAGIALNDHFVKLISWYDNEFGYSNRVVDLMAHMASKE
Chain of Cytochrome P450 2C19 (P33261 whole entry): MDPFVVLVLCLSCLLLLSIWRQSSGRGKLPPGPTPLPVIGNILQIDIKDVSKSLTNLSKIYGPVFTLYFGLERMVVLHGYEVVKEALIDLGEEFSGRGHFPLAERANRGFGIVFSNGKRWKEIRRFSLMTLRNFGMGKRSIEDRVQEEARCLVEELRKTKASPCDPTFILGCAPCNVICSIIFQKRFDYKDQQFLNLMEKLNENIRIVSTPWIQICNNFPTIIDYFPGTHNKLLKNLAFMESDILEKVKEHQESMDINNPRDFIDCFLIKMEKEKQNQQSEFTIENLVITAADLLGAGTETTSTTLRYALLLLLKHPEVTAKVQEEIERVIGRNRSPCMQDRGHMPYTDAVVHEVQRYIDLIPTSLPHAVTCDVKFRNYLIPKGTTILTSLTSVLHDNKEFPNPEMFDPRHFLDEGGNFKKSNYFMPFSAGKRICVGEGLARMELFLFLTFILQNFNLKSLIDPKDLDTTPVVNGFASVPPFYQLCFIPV
Chain of Genome polyprotein (P29990 2492-3391 limits assumed): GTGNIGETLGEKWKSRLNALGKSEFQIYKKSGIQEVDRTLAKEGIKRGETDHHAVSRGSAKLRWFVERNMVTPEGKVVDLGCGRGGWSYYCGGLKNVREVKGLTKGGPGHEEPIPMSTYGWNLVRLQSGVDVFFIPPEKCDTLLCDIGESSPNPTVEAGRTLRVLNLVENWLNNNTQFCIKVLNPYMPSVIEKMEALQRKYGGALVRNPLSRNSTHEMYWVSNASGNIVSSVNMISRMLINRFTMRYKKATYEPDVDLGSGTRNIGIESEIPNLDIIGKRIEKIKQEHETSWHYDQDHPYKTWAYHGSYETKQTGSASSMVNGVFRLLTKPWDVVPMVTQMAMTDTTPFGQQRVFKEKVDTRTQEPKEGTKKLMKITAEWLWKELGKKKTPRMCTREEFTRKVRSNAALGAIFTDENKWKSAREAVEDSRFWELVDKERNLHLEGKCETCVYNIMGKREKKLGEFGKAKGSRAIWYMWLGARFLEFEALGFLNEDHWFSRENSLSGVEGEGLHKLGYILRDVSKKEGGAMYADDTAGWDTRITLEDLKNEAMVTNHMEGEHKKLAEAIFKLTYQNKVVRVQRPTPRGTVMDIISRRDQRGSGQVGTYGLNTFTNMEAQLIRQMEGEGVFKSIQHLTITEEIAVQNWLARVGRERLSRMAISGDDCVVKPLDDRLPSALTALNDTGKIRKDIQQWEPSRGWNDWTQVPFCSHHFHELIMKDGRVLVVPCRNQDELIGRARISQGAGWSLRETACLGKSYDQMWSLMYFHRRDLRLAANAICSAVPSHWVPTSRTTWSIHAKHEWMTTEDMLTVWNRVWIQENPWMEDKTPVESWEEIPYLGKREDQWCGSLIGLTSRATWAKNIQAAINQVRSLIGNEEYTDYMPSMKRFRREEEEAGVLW

CN(CC(=O)NCCc1ccccc1)S(=O)(=O)c1ccc(Br)s1
IC50 [1]: > 100 µM (inactive)

O=C(Oc1ccccc1)N1CCC2(CCN(Cc3nccs3)CC2)CC1
AC50 [2]: inconclusive

COc1cccc(-c2csc3ncnc(Sc4nnnn4C)c23)c1
AC50 [3]: 25 µM (active)

C=CCOc1ccc(CNC(C)(C)CO)cc1OC.Cl
AC50 [2]: inconclusive

Cc1ccc(-c2ccnc3nc(Sc4ncc(C(F)(F)F)cc4Cl)nn23)cc1
IC50 [1]: > 100 µM (inactive)

Cc1nc2cc(C(=O)NCc3ccc4c(c3)OCO4)ccc2n1-c1ccc(Br)cc1
IC50 [4]: > 20 µM (inactive)
IC50 [5]: < 0.368 µM (active)
EC50 [6]: > 53 µM (inactive)

O=C1c2c(Cl)c(Cl)c(Cl)c(Cl)c2C(=O)N1c1nnc[nH]1
IC50 [7]: > 100 µM (inactive)
IC50 [8]: 5.3 µM (active)

CCOc1ccc(-n2c(=S)sc3c(O)nc(SCC(=O)C(C)(C)C)nc32)cc1
CC50 [9]: > 40 µM (active)
IC50 [10]: 54.2 µM (active)

O=C(c1cccc(S(=O)(=O)N2CCOCC2)c1)N(Cc1ccc(F)cc1)Cc1ccco1
IC50 [4]: > 20 µM (inactive)
IC50 [5]: 10.6 µM (active)
EC50 [6]: > 53 µM (inactive)

O=C(/C=C/c1cccc([N+](=O)[O-])c1)c1ccc([N+](=O)[O-])o1
CC50 [9]: 30.7 µM (active)
AC50 [11]: 0.557 µM (active)
EC50 [12]: 2.33 µM (active)
EC50 [13]: > 150 µM (not active)
AC50 [14]: 2.18 µM (active)
EC50 [15]: 8.2 µM (active)

COc1ccc(-c2c(C(F)(F)F)nn3c(O)cc(-c4ccccc4)nc23)cc1
IC50 [4]: 15.7 µM (active)
EC50 [12]: 8.01 µM (active)
EC50 [13]: > 150 µM (not active)
IC50 [5]: 4.6 µM (active)
EC50 [15]: 11.6 µM (active)
EC50 [6]: > 53 µM (inactive)

O=C(c1ccco1)N1CCC2(CC1)CN(c1ncccn1)C2
AC50 [16]: 25.1 µM (inconclusive)
AC50 [2]: inconclusive

O=C(O)c1cnc2ccccc2n1
IC50 [1]: > 100 µM (inactive)

CC(C)c1ccc(NC(=O)C(=O)C2C(=O)Nc3ccccc32)cc1 (stereo not drawn)
AC50 [17]: 98.2 µM (active)

O=C1C(NS(=O)(=O)c2cccs2)=C(N2CCN(c3cccc(Cl)c3)CC2)C(=O)c2ccccc21
CC50 [9]: > 40 µM (active)

COc1cccc(NC(=O)CN2CCc3ccccc3C2)c1
IC50 [1]: > 100 µM (inactive)

Oc1ccc(Br)cc1/C=N/n1c(S)nnc1C1CCCCC1
AC50 [17]: 8.32 µM (active)

CC(=O)[C@H]1CC[C@H]2[C@@H]3C=CC4=CC(=O)CC[C@@]4(C)[C@H]3CC[C@]12C
AC50 [2]: inconclusive

COC(=O)c1cc(-c2ccc([N+](=O)[O-])cc2)[nH]n1
IC50 [7]: > 100 µM (inactive)
IC50 [8]: > 100 µM (not active)

Cc1ccc(-c2cc3onc(-c4ccccc4)c3c(=O)n2C)cc1
AC50 [18]: 43.6 µM (active)
AC50 [19]: 1.67 µM (active)
AC50 [20]: > 52 µM (inactive)
AC50 [3]: 9.76 µM (active)
AC50 [21]: 3.13 µM (active)
AC50 [22]: 27.6 µM (active)
